Source: ChEMBL document CHEMBL5465560, “Selectivity Literature for EUbOPEN Chemogenomic Library” (2024)

Legend:
[1] = molecular target: T1, Cyclin-G-associated kinase (Homo sapiens) (UniProt O14976); test: Selectivity interaction (KinomeScan (DiscoverX)) EUB0000045b GAK
T1 sequence (whole entry): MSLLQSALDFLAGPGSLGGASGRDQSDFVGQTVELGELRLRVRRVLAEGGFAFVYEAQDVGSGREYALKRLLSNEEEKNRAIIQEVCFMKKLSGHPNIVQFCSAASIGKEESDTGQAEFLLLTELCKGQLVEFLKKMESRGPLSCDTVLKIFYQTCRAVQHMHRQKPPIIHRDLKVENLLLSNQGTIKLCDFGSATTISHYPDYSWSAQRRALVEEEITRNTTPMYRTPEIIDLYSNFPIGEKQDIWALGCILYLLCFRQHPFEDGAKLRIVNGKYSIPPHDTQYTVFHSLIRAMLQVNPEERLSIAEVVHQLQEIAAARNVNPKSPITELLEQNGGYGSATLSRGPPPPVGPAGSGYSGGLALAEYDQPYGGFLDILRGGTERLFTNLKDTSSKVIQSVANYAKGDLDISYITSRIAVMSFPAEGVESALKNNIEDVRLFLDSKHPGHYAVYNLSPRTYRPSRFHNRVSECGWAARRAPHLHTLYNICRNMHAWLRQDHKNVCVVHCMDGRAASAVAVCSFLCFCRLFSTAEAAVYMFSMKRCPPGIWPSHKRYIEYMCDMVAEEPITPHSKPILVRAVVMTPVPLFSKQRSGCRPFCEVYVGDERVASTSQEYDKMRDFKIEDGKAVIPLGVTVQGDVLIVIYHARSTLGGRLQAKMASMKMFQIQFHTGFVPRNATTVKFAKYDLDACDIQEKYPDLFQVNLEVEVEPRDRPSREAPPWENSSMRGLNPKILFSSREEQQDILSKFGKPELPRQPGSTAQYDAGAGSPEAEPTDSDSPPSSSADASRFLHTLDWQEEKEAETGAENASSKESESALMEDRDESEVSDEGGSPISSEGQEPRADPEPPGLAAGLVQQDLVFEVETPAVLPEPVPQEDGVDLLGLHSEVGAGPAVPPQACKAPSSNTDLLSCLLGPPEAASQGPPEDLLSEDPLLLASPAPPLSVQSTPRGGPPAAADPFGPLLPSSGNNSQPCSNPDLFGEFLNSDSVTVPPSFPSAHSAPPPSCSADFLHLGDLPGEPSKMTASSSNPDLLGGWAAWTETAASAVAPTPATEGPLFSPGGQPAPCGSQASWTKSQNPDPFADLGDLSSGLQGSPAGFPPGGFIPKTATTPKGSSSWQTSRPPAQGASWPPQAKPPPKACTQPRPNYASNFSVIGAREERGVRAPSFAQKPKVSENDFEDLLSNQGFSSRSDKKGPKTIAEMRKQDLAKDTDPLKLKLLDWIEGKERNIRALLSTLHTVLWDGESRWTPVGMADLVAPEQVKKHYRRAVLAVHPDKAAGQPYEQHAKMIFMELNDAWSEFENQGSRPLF

[2] = molecular target: T2, 5-hydroxytryptamine receptor 1A (Homo sapiens) (UniProt P08908); test: Selectivity interaction (GPCR panel (PDSP screen)) EUB0001079a HTR1A; conditions: at 10 µM
T2 sequence (whole entry): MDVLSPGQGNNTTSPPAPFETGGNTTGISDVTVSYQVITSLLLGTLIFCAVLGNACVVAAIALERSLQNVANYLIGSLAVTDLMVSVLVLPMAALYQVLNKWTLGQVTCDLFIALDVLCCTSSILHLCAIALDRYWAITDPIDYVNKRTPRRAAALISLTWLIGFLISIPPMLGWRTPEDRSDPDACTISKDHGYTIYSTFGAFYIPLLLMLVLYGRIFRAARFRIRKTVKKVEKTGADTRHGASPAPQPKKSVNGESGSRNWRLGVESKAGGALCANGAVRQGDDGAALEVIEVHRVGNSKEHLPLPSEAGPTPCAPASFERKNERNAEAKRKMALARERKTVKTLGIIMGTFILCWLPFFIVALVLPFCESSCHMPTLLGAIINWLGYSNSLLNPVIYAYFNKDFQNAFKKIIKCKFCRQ

[3] = molecular target: Serine/threonine-protein kinase 10 (Homo sapiens) (UniProt O94804); conditions: at 10 µM
[4] = molecular target: T3, Muscarinic acetylcholine receptor M1 (Homo sapiens) (UniProt P11229); test: Selectivity interaction (Panel of kinases, GPCRs, ion channels and transporters (enzymatic assay)) EUB0000266bCl CHRM1
T3 sequence (whole entry): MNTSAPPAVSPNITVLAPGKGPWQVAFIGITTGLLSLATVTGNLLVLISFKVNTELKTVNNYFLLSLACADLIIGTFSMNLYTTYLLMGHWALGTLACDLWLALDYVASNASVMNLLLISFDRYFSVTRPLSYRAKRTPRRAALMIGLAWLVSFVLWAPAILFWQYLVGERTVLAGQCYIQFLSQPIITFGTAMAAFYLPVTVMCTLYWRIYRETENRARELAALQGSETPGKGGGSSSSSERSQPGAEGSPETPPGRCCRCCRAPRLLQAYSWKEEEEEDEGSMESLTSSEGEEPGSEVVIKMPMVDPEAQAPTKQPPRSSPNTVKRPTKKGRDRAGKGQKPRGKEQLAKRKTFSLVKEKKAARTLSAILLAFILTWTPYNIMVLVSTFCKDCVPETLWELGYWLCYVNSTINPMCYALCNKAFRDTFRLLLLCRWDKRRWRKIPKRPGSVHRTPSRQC

[5] = molecular target: T4, Receptor-interacting serine/threonine-protein kinase 1 (Homo sapiens) (UniProt Q13546); test: Selectivity interaction (KinomeScan (DiscoverX)) EUB0000092b RIPK1; conditions: at 10 µM
T4 sequence (whole entry): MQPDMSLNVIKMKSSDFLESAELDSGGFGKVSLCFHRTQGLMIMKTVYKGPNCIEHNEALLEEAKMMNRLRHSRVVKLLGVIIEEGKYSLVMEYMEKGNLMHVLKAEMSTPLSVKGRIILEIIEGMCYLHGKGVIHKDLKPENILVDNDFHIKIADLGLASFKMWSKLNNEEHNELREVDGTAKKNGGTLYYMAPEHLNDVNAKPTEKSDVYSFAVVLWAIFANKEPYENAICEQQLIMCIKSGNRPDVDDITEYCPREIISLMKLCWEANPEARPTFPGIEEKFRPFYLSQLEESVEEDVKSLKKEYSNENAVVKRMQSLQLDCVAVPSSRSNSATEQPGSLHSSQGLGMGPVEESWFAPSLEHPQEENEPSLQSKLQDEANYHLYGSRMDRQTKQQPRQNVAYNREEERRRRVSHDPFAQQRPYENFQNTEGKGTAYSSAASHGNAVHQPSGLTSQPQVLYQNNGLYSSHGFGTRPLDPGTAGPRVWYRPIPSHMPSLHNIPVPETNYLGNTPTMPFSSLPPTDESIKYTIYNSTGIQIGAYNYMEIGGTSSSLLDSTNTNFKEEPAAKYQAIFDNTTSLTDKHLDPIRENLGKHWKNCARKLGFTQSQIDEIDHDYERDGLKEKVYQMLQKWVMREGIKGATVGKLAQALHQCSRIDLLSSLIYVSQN

Chain of Serine/threonine-protein kinase 10 (Homo sapiens) (O94804 whole entry, looked up): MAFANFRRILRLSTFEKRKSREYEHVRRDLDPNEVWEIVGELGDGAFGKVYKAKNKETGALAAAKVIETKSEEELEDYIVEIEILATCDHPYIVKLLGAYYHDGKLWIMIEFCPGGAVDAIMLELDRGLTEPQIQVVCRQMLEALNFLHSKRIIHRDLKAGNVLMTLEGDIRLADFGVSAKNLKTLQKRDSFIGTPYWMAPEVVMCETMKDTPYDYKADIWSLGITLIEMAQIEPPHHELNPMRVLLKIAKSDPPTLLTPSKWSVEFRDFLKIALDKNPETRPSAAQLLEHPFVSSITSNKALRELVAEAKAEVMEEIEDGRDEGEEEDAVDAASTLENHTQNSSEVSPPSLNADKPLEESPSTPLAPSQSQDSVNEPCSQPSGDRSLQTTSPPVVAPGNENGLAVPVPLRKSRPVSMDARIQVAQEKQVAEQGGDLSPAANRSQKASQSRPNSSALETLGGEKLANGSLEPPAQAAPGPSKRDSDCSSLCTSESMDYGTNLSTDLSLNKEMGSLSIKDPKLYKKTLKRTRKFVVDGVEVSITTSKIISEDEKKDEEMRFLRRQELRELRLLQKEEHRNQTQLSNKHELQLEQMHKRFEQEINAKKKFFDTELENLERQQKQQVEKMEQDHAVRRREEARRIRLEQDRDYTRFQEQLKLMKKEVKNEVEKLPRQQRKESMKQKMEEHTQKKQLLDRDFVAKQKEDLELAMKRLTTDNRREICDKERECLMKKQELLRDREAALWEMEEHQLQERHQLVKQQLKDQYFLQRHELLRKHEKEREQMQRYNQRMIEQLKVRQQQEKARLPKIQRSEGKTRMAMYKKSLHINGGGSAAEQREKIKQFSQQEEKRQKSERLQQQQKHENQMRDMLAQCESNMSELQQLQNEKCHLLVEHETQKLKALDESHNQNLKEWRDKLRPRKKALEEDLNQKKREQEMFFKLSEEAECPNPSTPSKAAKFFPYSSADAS

For `C=CC(=O)Nc1cc(-n2c(=O)ccc3cnc4ccc(-c5ccc(NS(C)(=O)=O)cc5)cc4c32)ccc1C`, the % of control ([1]; at 1 µM) was 74% and the % of control ([1]; at 10 µM) was 23%.
For `Nc1cnc(N2CCc3cc(S(=O)(=O)Nc4c(F)cc(Cl)cc4F)cc(N4CCCC4=O)c32)nc1` [TP-020n], the % of inhibition [2] was 4.45%.
With `Cc1cc([C@@H](C)Nc2ccccc2C(=O)O)c2nc(N3CCOCC3)cc(=O)n2c1` [AZD-6482] the % of control [3] was 100%.
`CCn1c(-c2nc3cc(C(=O)N4CCCC(N)C4)ccc3n2C)cc2ccccc21` (stereo unspecified) was tested, and the pXC50 [4] was less than 4.8 M.
Molecule `CCC(=O)N1CCN(c2ccc(-n3c(=O)ccc4cnc5ccc(-c6cnc7ccccc7c6)cc5c43)cc2C(F)(F)F)CC1` has a % of control [5] of 1.9%.
